Test results taken from paper PMC12405493, “Selective ubiquitination of drug-like small molecules by the ubiquitin ligase HUWE1” (Nature Communications, 2025).

Columns and labels:
[1] = system: HECT domains of E6AP (UBE3A), HACE1, NEDD4, and UBE3C; experiment: Analytical SEC of compound ubiquitination by other HECT domains; type: biochemical, human
[2] = biological target: T1, HUWE1^HECT (Homo sapiens, UniProt Q7Z6Z7); experiment: Analytical SEC / intact protein MS of HUWE1^HECT-driven compound ubiquitination; type: biochemical; details: for Compound ubiquitination by HUWE1^HECT (SEC, intact protein MS): + ATP, WT Ub; for Inhibitor ubiquitination activity of HUWE1^HECT compared with other HECT domains: SEC, monoubiquitinated compound, HUWE1^HECT signal normalized to 1
T1 construct: the isolated HECT domain of HUWE1 (HUWE1^HECT); made in house
T1 sequence (Q7Z6Z7 3993-4374): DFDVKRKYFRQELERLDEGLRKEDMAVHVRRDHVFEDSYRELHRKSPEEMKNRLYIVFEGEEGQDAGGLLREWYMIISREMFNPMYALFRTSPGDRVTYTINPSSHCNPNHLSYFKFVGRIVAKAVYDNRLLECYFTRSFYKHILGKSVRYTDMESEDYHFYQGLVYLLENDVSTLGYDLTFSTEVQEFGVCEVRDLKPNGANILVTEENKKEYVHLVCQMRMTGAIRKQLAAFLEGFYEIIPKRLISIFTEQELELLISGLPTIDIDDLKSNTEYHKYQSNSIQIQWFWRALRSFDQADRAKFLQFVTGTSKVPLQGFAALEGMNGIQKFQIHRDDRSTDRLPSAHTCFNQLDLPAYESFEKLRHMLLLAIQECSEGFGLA
Description: HUWE1^HECT multi-turnover ubiquitination reactions were performed with 500 nM UBA1, 5 μM UBE2L3, 5 μM HUWE1^HECT and 100 μM Ub in 20 mM HEPES (pH 7.5), 100 mM NaCl and 0.5 mM TCEP in the presence of 1 mM ATP and 3 mM MgCl2. After 15 min incubation at 30 °C, the mixture was injected into a Superdex 75 Increase 3.2/300 column (Cytiva), equilibrated in 25 mM HEPES (pH 7.5), 100 mM NaCl, and 0.5 mM TCEP at 4 °C. Chromatograms were analyzed and peaks integrated with Unicorn v.7.9.02440 (Cytiva). Data were plotted with Prism v.9.3.1 (GraphPad).
Intact protein LC/MS: protein molecular weights (MWs) were determined by LC/MS on a nanoflow chromatography system (Dionex U3000 nanoRSLC), hyphenated to a hybrid quadrupole/orbitrap mass spectrometer (Q Exactive HF) with a NanoFlex ion source and controlled by Xcalibur v.2.4 (all Thermo Fisher Scientific). Proteins were dissolved in 2% (v/v) acetonitrile (ACN), 0.1% (v/v) formic acid (FA) to a concentration of 100 fmol μL^−1. For each analysis, 500 fmol were enriched on a pre-column (0.15 ×20 mm, Reprosil-Pur120 C18-AQ 5 μm; Dr. Maisch GmbH) and separated on an analytical RP-C18 column (0.075 mm×200 mm, Reprosil-Pur 120 C18-AQ; 1.9 μm, Dr. Maisch GmbH), using a 23-min linear gradient of 10–80% (v/v) ACN/0.1% (v/v) FA at 300 nl min^−1. MS data were acquired in full MS mode across the 500–1800 m/z-range at a resolution setting of 120,000 FWHM, an AGC target of 1*10e6 and a maximum fill time of 200 ms. Charge state deconvolution and MW representation were performed in Freestyle v.1.9 (Thermo Fisher Scientific), using default settings for high-resolution data.

## NCc1cccc(CNc2ncnc3c(N4CCN(Cc5ccccc5)CC4)ncnc23)c1 [BI8626]
[1]
  Compound ubiquitination by other HECT domains: certain compound-directed activities were detected for all tested HECT domains
[2]; 20 μM compound
  Compound ubiquitination by HUWE1^HECT (SEC, intact protein MS): assigned to the respective monoubiquitinated compound by intact protein MS
[2]; 20 μM compound, UbΔGG (residues 1–74) instead of WT Ub
  Compound ubiquitination by HUWE1^HECT (SEC): No compound ubiquitination occurred
[2]
  Inhibitor ubiquitination activity of HUWE1^HECT compared with other HECT domains: substantially higher activity for HUWE1^HECT than for the other HECT domains

## Cc1c(C(=O)Nc2ccc(CN)cc2)ncnc1N1CCC(C#N)(c2ccccc2)CC1 [BI8622]
[1]
  Compound ubiquitination by other HECT domains: certain compound-directed activities were detected for all tested HECT domains
[2]; 20 μM compound
  Compound ubiquitination by HUWE1^HECT (SEC, intact protein MS): assigned to the respective monoubiquitinated compound by intact protein MS
[2]
  Inhibitor ubiquitination activity of HUWE1^HECT compared with other HECT domains: substantially higher activity for HUWE1^HECT than for the other HECT domains
